The values below come from patent US20180207294A1, “NON-ALCOHOLIC FATTY LIVER REGULATING FACTOR 14-3-3 PROTEIN” (Korea University Research and Business Foundation, priority 2015, published 2018).

For one assay, the target named is T1, PPAR-RXR complex (Homo sapiens, UniProt P37231).
T1 sequence (P37231 1-505): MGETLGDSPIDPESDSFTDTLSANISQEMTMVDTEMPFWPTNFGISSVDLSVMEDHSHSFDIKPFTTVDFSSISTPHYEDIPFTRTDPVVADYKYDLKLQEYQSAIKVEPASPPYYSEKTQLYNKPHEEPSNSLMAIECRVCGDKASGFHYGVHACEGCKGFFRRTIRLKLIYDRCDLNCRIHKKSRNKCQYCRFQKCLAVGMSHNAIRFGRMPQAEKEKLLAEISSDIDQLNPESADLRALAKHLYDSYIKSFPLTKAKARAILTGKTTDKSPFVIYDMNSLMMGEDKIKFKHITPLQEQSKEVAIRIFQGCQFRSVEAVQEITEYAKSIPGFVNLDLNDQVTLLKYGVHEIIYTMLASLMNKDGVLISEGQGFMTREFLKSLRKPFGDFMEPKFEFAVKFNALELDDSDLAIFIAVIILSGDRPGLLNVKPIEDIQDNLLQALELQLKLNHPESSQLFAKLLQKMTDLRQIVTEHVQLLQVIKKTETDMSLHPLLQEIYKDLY
T1 sequence (P19793 1-462 partner): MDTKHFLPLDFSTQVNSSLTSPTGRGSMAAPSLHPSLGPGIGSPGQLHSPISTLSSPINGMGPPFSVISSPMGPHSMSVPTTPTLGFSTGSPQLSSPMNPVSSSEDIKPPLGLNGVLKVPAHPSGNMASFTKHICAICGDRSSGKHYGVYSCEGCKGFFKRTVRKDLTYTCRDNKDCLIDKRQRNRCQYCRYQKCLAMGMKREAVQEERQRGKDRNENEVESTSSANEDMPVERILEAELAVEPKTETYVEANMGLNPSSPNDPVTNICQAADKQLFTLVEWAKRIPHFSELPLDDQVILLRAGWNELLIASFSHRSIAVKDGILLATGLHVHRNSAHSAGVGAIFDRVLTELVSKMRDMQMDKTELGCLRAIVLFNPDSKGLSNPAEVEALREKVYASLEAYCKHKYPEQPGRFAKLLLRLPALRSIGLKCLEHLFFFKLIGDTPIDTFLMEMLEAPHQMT
The assay is described as follows: Formation of PPAR-RXR complex under 14-3-3 overexpression. The conditions noted are these: overexpression of 14-3-3β and 14-3-3γ; FIG. 8C. The format is binding.

The test system of the next assay is HepG2 cells. Kind of assay: PPARγ2 target gene mRNA (PCR) with 14-3-3 overexpression and oleic acid, HepG2 cells. The class given is cell-based, human. Conditions: 14-3-3 overexpression, 200 μM oleic acid 72 hours, FIG. 7A. Here is the method: (§1) HepG2 cells were seeded in a 6-well plate at a density of 4×10^5 cells per each well, and then transfected with GFP-14-3-3β DNA (4 μg) or GFP-14-3-3γ DNA (4 μg) using an E-fection plus reagent (Lugen). A ratio of DNA to the E-fection plus reagent was 1:2, and this method was performed according to a manufacturer's manual. After transfection, the cells were treated with 200 μM of oleic acid (OA) for 72 hours, and for mRNA extraction, the corresponding cells were lysed with 1 ml/well of TRIzol (Invitrogen), 200 μl of chloroform was added thereto and mixed well, the resultant cells were maintained at room temperature for 5 minutes and then centrifuged at 12,000×g and 4° C. for 15 minutes, the obtained supernatant was mixed with 500 μl of isopropanol and then put on ice for 10 minutes, and the resulting supernatant was centrifuged at 12,000×g and 4° C. for 15 minutes to remove a supernatant, and then pellets were dissolved with tertiary distilled water treated with diethyl pyrocarbonate (DEPC). 2 μg of mRNA was synthesized into cDNA using a Superscript First Strand cDNA Synthesis Kit (Bioneer, Daejeon, South Korea) and the synthesized cDNA as a template was amplified through polymerase chain reaction (PCR) using primers specific to PPARγ2 (SEQ ID NOS: 1 and 2), 14-3-3β (SEQ ID NOS: 3 and 4), 14-3-3γ (SEQ ID NOS: 5 and 6), SREBP-1c, FAT/CD36, and β-actin of humans, and was amplified through real-time PCR using primers specific to SREBP-1c, FAT/CD36, and GAPDH of mice. β-actin and GAPDH were used as controls to see whether mRNAs of the respective cells were compared in the same amount.

For assay [1], the system named is primary mouse hepatocytes. The assay is described as follows: PPARγ2 target gene mRNA (real-time PCR) with 14-3-3 overexpression and oleic acid, primary mouse hepatocytes. The format is cell-based. The conditions noted are these: 14-3-3 overexpression, oleic acid, FIG. 7B. Here is the method: as §1

As for “14-3-3β: 14-3-3 isoform protein, overexpressed by DNA transfection; regulating factor that increases transcriptional activity of PPARγ2”, the “formation of the PPAR-RXR complex” value with PPAR-RXR complex is “did not affect the formation of the PPAR-RXR complex”. Besides, in the assay with HepG2 cells, the “mRNA expression of FAT/CD36” value was “further increased” and the “mRNA expression of SREBP-1c” value is given as “further increased”. Further, in assay [1], the “mRNA expression of FAT/CD36” value is given as “further increased” and the “mRNA expression of SREBP-1c” value is recorded as “further increased”.

For the substance “14-3-3γ: 14-3-3 isoform protein, overexpressed by DNA transfection; regulating factor that decreases transcriptional activity of PPARγ2”, the “formation of the PPAR-RXR complex” value with PPAR-RXR complex is “did not affect the formation of the PPAR-RXR complex”. Besides, in the assay with HepG2 cells, the “mRNA expression of FAT/CD36” value was “reduced” and the “mRNA expression of SREBP-1c” value is recorded as “reduced”. In assay [1], the “mRNA expression of FAT/CD36” value is listed as “reduced” and the “mRNA expression of SREBP-1c” value is given as “reduced”.
